The record followed here is ChEMBL document CHEMBL1144603, “Synthesis and biological evaluation of new taxoids derived from 2-deacetoxytaxinine J” (Bioorg Med Chem Lett, 2007).

Active and inactive are the calls of the source. The rule behind the calls is not given here.

Assay [1] deals with MCF7. Nature of the assay: MDR-reversal in paclitaxel-resistant […] cell growth assay as reduction of IC50 at 1uM. The format is functional, cell-based, Homo sapiens.
Assay [2] relates to MCF7. In words: MDR-reversal in paclitaxel-resistant […] cell growth assay. The assay is classed as functional, cell-based. To be noted: Homo sapiens.
In assay [3] the test system is MCF7. In words: MDR-reversal in paclitaxel-resistant […] cell growth assay as reduction of IC50 at 0.1uM. The format is functional, cell-based, Homo sapiens.

With `CC(=O)O[C@H]1C[C@H]2C[C@@H]3[C@]4(CO4)[C@@H](OC(=O)/C=C/c4ccccc4)C[C@H](OC(C)=O)[C@@]3(C)[C@@H](OC(C)=O)[C@H](OC(C)=O)C(=C1C)[C@@H]2C`, the “percent reduction of paclitaxel IC50” value in the assay with MCF7 [1] stood at 85%.

Take `C=C1[C@@H](OC(=O)/C=C/c2ccccc2)C[C@H](OC(C)=O)[C@]2(C)[C@@H]1C[C@@H]1C[C@H](OC(=O)[C@@H]3OC(c4ccc(OC)cc4OC)N(C(=O)OC(C)(C)C)[C@H]3CC(C)C)C(C)=C([C@@H](OC(C)=O)[C@@H]2OC(C)=O)[C@@H]1C` (some centres undefined): the result in the assay with MCF7 [2] was inactive.

On to `C=C1[C@@H](O[Si](CC)(CC)CC)C[C@H](OC(C)=O)[C@]2(C)[C@@H]1C[C@@H]1C[C@H](OC(C)=O)C(C)=C(C1C)[C@@H](OC(C)=O)[C@@H]2OC(C)=O` (single isomer, unassigned), for which the “percent reduction of paclitaxel IC50” value in the assay with MCF7 [1] was 92%.

As to `C=C1[C@@H](OC(=O)/C=C/c2ccccc2)C[C@H](OC(C)=O)[C@]2(C)[C@@H]1C[C@@H]1C[C@H](OC(=O)C(O)[C@@H](CC(C)C)NC(=O)OC(C)(C)C)C(C)=C([C@@H](OC(C)=O)[C@@H]2OC(C)=O)[C@@H]1C` (some centres undefined), the result in the assay on MCF7 [2] was inactive.

As for `C=C1[C@@H](OC(=O)[C@@H]2OC(c3ccc(OC)cc3OC)N(C(=O)OC(C)(C)C)[C@H]2CC(C)C)C[C@H](OC(C)=O)[C@]2(C)[C@@H]1C[C@@H]1C[C@H](OC(C)=O)C(C)=C([C@@H](OC(C)=O)[C@@H]2OC(C)=O)[C@@H]1C` (some centres undefined), the outcome with MCF7 [2] was inactive.

As to `CC(=O)O[C@H]1C[C@H](OC(=O)/C=C/c2ccccc2)[C@@]2(CO2)[C@H]2C[C@@H]3C[C@H](OC(C)=O)[C@]4(C)O[C@@]4([C@@H]3C)[C@@H](OC(C)=O)[C@H](OC(C)=O)[C@]12C`, the IC50 reduction in the assay on MCF7 [3] was found to be 2%. Besides, the “percent reduction of paclitaxel IC50” value with MCF7 [1] turned out to be 70%.

On to `C=C1[C@H]2C[C@@H]3C[C@H](OC(=O)[C@@H](O)Cc4ccccc4)C(C)=C([C@@H](OC(C)=O)[C@H](OC(C)=O)[C@]2(C)[C@@H](OC(C)=O)C[C@@H]1O)[C@@H]3C`, for which the IC50 reduction with MCF7 [3] is recorded as 24%. Besides, the “percent reduction of paclitaxel IC50” value in the assay on MCF7 [1] is 89%.

On to `C=C1[C@H]2C[C@@H]3C[C@H](OC(=O)/C=C/c4ccccc4)C(C)=C([C@@H](OC(C)=O)[C@H](OC(C)=O)[C@]2(C)[C@@H](OC(C)=O)C[C@@H]1O)[C@@H]3C`, for which the IC50 reduction in the assay on MCF7 [3] was found to be 35%. Moreover, in the assay on MCF7 [1], the “percent reduction of paclitaxel IC50” value amounted to 92%.

As to `C=C1[C@@H](OC(=O)/C=C/c2ccccc2)C[C@H](OC(C)=O)[C@]2(C)[C@@H]1C[C@@H]1C[C@H](OC(=O)/C=C/c3ccccc3)C(C)=C([C@@H](OC(C)=O)[C@@H]2OC(C)=O)[C@@H]1C`, the result in the assay on MCF7 [2] was inactive.

As to `C=C1[C@@H](OC(=O)c2ccccc2)C[C@H](OC(C)=O)[C@]2(C)[C@@H]1C[C@@H]1C[C@H](OC(C)=O)C(C)=C(C1C)[C@@H](OC(C)=O)[C@@H]2OC(C)=O` (single isomer, unassigned), the outcome in the assay with MCF7 [2] was inactive.

Consider `C=C1[C@H]2C[C@@H]3C[C@H](O)C(C)=C([C@@H](OC(C)=O)[C@H](OC(C)=O)[C@]2(C)[C@@H](OC(C)=O)C[C@@H]1O)[C@@H]3C`, for which the “percent reduction of paclitaxel IC50” value in the assay on MCF7 [1] is given as 47%.

On to `C=C1[C@H]2C[C@@H]3C[C@H](OC(=O)c4ccccc4)C(C)=C([C@@H](OC(C)=O)[C@H](OC(C)=O)[C@]2(C)[C@@H](OC(C)=O)C[C@@H]1O)[C@@H]3C`, for which the IC50 reduction in the assay with MCF7 [3] is recorded as 67%. Moreover, in the assay on MCF7 [1], the “percent reduction of paclitaxel IC50” value worked out at 95%.

Regarding `C=C1[C@@H](OC(=O)/C=C/c2ccccc2)C[C@H](OC(C)=O)[C@]2(C)[C@@H]1C[C@@H]1C[C@H](OC(C)=O)[C@]3(C)O[C@@]3([C@@H]1C)[C@@H](OC(C)=O)[C@@H]2OC(C)=O`, the IC50 reduction in the assay with MCF7 [3] was found to be 22%. In the assay on MCF7 [1], the “percent reduction of paclitaxel IC50” value was 92%.

As for `C=C1[C@H]2C[C@@H]3C[C@H](OC(=O)[C@H](O)[C@H](CC(C)C)NC(=O)OC(C)(C)C)C(C)=C([C@@H](OC(C)=O)[C@H](OC(C)=O)[C@]2(C)[C@@H](OC(C)=O)C[C@@H]1O)[C@@H]3C`, the “percent reduction of paclitaxel IC50” value with MCF7 [1] was determined as 93%.
